Experimental data reported in BindingDB's records for patent US12187701 (Dana-Farber Cancer Institute, 2025).

Biological target: Cyclin-dependent kinase 14 (Homo sapiens, UniProt O94921)
Assay: In vitro Kinase Assay
Protocol: Lanthascreen Eu kinase binding assays were conducted for Cdk14/CycY largely as performed in the commercial assay service by Life Technologies, but included a 30 minute pre-incubation step of the kinase with candidate compounds to facilitate covalent bond formation.

Cyclin-dependent kinase 14, sequence (O94921 whole entry): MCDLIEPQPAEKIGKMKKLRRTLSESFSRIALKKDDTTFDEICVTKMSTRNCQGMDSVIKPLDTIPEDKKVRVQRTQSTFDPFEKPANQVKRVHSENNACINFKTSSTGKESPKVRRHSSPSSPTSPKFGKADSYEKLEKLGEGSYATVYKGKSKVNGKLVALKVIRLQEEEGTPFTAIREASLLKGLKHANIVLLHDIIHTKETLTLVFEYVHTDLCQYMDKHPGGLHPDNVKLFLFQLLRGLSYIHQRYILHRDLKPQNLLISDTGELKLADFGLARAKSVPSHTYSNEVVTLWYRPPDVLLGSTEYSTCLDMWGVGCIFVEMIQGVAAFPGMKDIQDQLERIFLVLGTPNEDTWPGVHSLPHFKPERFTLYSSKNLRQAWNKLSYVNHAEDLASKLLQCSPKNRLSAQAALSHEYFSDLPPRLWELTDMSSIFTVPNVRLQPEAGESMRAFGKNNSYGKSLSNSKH

CN(C)C/C=C/C(=O)Nc1cccc(CNC(=O)c2n[nH]cc2NC(=O)c2c(Cl)cccc2Cl)c1 [US12187701, Compound FMF-05-064-2]
IC50: 0.108 µM
